According to ChEMBL document CHEMBL4130634, “Discovery of Reversible DNA Methyltransferase and Lysine Methyltransferase G9a Inhibitors with Antitumoral in Vivo Efficacy” (J Med Chem, 2018):

Key:
[1] = target: DNA (cytosine-5)-methyltransferase 1 (Homo sapiens, UniProt P26358); test: Inhibition of human DNMT1 using polydeoxyinosine polydeoxycytosine DNA as substrate after 15 mins in presence of SAM by TR-FRET assay
[2] = target: T1, Histone-lysine N-methyltransferase EHMT1 (Homo sapiens, UniProt Q9H9B1); test: Inhibition of recombinant human GLP using histone H3 peptide as substrate after 120 mins in presence of [3H]SAM by radiometric assay
T1 sequence (Q9H9B1 whole entry): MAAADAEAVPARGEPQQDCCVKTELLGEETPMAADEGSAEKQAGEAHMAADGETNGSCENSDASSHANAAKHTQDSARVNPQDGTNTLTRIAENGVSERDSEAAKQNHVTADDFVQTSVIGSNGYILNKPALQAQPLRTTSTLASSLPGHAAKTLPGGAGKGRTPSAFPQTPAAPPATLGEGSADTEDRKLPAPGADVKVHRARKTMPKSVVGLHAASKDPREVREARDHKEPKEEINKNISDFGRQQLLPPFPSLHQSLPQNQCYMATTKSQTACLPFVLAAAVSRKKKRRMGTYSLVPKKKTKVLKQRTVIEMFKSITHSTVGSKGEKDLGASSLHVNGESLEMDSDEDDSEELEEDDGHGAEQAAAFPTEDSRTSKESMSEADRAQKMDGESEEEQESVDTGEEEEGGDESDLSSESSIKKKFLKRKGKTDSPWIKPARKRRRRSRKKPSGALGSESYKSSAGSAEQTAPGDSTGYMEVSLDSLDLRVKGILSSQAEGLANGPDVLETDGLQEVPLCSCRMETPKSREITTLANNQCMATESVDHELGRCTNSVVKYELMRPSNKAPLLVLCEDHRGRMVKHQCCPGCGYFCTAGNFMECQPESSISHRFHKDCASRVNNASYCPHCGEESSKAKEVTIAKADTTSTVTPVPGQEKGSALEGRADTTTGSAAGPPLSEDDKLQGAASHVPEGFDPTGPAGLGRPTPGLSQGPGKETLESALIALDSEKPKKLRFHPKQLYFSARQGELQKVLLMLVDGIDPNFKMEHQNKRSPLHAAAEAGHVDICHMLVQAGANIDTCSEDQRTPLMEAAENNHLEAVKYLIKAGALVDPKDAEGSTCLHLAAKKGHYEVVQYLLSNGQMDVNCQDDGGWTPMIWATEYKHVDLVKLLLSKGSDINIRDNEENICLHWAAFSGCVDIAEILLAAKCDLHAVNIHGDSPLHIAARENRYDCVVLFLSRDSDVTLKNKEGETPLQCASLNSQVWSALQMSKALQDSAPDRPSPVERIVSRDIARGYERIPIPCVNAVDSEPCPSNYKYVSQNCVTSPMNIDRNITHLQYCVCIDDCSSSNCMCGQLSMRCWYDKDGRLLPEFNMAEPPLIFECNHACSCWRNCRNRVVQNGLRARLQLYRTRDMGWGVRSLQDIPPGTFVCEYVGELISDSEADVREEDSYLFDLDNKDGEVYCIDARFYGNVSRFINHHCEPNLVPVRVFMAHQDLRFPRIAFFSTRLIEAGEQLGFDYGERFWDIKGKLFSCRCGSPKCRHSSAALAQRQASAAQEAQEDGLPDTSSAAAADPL

OCI-Ly10 = test: Growth inhibition of human OCI-LY10 cells after 48 hrs by MTS assay; type: functional; details: OCI-Ly10, 48 h
CYP2C9 = CYP2C9 (Homo sapiens, UniProt P11712); test: Inhibition of CYP2C9 in human liver microsomes at 10 uM after 10 mins in presence of NADPH by LC-MS/MS analysis relative to control; type: ADME
CYP2D6 = CYP2D6 (Homo sapiens, UniProt P10635); test: Inhibition of CYP2D6 in human liver microsomes at 10 uM after 10 mins in presence of NADPH by LC-MS/MS analysis relative to control; type: ADME
[3] = Metabolic stability in mouse liver microsomes assessed as parent compound remaining at 1 uM preincubated for 10 mins followed by NADP addition after 20 mins by LC-MS/MS analysis; type: ADME, microsome; details: read-out: Stability
[4] = Half life in mouse liver microsomes at 1 uM preincubated for 10 mins followed by NADP addition after 20 mins by LC-MS/MS analysis; type: ADME, microsome
[5] = AUC (0 to 24 hrs) in RARG2-/-gammac-/- Balb/c mouse at 5 mg/kg, iv administered as single dose by LC-MS/MS analysis; type: ADME, organism-based; parameters: dose 5 mg/kg, time < 24 hr, route intravenous; details: in vivo

Chain of CYP2D6 (P10635 whole entry): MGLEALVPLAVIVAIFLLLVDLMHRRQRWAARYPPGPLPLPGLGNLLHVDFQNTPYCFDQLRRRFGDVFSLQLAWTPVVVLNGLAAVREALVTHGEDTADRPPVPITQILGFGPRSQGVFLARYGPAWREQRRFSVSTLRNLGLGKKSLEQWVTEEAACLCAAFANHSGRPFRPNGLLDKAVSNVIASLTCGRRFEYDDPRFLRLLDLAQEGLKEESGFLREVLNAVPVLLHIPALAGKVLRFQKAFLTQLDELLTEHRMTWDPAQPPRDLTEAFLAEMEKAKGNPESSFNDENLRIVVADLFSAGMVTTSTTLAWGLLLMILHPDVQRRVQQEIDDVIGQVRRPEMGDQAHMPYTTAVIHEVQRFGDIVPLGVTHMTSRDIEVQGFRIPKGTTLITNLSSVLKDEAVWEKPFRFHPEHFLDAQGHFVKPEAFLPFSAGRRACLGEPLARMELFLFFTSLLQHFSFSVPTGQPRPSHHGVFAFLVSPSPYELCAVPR
Chain of CYP2C9 (P11712 whole entry): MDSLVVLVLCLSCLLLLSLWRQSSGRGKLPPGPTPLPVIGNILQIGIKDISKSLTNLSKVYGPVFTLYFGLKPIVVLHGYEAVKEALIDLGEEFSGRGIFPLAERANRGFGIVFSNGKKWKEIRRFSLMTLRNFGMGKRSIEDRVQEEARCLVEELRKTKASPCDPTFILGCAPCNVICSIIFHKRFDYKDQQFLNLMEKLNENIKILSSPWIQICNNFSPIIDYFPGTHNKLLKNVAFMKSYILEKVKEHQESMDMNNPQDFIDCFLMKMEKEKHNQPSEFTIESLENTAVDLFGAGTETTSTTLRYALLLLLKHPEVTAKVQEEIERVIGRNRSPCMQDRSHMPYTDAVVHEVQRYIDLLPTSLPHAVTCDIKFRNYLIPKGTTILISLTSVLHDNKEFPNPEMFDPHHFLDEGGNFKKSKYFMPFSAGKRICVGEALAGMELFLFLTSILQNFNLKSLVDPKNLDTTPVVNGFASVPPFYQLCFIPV
Chain of DNA (cytosine-5)-methyltransferase 1 (P26358 whole entry): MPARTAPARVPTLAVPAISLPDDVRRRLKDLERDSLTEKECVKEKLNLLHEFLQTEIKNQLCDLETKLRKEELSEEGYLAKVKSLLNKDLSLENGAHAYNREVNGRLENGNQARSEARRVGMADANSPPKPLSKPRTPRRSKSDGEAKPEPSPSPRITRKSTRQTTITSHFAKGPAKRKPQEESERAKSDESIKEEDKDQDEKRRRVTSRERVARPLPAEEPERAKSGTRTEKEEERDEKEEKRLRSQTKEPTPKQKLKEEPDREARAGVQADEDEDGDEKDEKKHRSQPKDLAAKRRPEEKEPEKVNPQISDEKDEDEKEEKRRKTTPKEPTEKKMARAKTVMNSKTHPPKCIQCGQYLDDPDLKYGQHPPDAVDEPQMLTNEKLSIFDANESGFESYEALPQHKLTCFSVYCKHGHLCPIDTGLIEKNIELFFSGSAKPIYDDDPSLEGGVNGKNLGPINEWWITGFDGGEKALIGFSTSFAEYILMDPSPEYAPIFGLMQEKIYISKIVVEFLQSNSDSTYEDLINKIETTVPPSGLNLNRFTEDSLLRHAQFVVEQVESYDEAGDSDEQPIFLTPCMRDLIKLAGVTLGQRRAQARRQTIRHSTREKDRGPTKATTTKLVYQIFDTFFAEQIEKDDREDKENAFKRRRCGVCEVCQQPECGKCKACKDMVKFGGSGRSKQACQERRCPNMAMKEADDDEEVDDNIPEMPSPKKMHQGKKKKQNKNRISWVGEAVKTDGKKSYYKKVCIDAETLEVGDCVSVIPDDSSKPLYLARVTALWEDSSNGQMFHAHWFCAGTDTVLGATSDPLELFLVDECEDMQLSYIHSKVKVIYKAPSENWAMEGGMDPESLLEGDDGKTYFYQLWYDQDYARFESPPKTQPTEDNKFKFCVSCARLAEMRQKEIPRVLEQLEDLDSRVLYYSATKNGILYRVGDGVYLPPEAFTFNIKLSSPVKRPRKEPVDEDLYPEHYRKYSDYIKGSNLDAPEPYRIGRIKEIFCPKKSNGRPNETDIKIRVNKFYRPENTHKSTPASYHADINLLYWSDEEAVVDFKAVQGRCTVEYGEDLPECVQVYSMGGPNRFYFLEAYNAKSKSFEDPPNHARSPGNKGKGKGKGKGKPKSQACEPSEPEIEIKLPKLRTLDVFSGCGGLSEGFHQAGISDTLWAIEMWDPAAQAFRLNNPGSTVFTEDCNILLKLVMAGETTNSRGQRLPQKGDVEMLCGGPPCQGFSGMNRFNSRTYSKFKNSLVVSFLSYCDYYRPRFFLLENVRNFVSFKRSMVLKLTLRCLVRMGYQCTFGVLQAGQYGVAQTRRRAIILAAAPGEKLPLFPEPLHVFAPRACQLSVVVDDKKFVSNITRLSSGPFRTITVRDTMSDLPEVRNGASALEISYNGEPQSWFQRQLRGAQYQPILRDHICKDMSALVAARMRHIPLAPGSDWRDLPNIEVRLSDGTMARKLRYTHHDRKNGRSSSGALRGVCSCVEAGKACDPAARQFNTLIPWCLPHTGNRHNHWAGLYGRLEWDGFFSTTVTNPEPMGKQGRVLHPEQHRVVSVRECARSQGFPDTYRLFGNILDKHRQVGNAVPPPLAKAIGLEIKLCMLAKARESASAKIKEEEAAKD

With COc1cc2c(NC3CCN(C4CC4)CC3)cc(-c3ccc(C)o3)nc2cc1OCCCN1CCCC1 the IC50 [1] was 413 nM, the IC50 [2] was over 20000 nM and the GI50 (OCI-Ly10) was 94 nM. It also gave an inhibition at 10 min, 10 µM (CYP2C9) of 8%, an inhibition at 10 min, 10 µM (CYP2D6) of 27.6% and a remaining at 20 min, 1 µM [3] of 15%. It also gave a half-life at 1 µM [4] of 6 min and an AUC(0-t) at 24 h [5] of 8.79 µM·h.
